Laboratory results from the supplement of paper PMC4862054.

Legend:
Details in all cases: 72 h
BT-474 [1] = system: BT-474
How it was run: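 Breast cancer cell lines in 20 µl suspension were seeded onto 384-well plates that already held compound dissolved in 5 µl medium and were incubated for 72 h. Viability was measured by adding 2.5 µl CellTiter-Blue for 2 h at 37 °C and reading fluorescence at 560/590 nm. Each plate was normalised to vehicle and a positive kill control and checked by Z'-factor. EC50 was taken from a fitted percent-inhibition dose-response curve, censored at the highest concentration, and rows with a drug sensitivity score of zero were removed.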

Hs578T [2] = system: Hs578T
How it was run: (§1)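 For viability and cell death testing, 384-well plates carried compound at 5 concentrations in 10-fold steps over a compound-specific 10,000-fold range, and breast cancer cell lines were seeded in 20 µl suspension. After 72 h incubation, cell death was read by CellTox Green fluorescence (485/520 nm) before viability was read by CellTiter-Glo luminescence. EC50 was fitted from the dose-response curves and censored at the top concentration. Normalisation on each plate was to 0.1 % DMSO and a positive kill control.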

MCF-10A [3] = system: MCF-10A
How it was run: as §1

CAL-148 [4] = system: CAL-148
How it was run: as §1

MFM-223 [5] = system: MFM-223
How it was run: as §1

MDA-MB-468 [6] = system: MDA-MB-468
How it was run: as §1

MDA-MB-436 [7] = system: MDA-MB-436
How it was run: as §1

CAL-120 [8] = system: CAL-120
How it was run: as §1

CAL-85-1 [9] = system: CAL-85-1
How it was run: as §1

BT-474 [10] = system: BT-474; remark: listed apart in the source
How it was run: as §1

Hs578T [11] = system: Hs578T; remark: listed apart in the source
How it was run: as §1

MCF-10A [12] = system: MCF-10A; remark: listed apart in the source
How it was run: as §1

CAL-148 [13] = system: CAL-148; remark: listed apart in the source
How it was run: as §1

HDQ-P1 [14] = system: HDQ-P1
How it was run: as §1

MFM-223 [15] = system: MFM-223; remark: listed apart in the source
How it was run: as §1

DU-4475 [16] = system: DU-4475
How it was run: as §1

HCC1599 = system: HCC1599
How it was run: as §1

MDA-MB-468 [17] = system: MDA-MB-468; remark: listed apart in the source
How it was run: as §1

MDA-MB-453 = system: MDA-MB-453
How it was run: as §1

MDA-MB-436 [18] = system: MDA-MB-436; remark: listed apart in the source
How it was run: as §1

CAL-120 [19] = system: CAL-120; remark: listed apart in the source
How it was run: as §1

CAL-51 = system: CAL-51
How it was run: as §1

HCC1143 [20] = system: HCC1143
How it was run: as §1

CAL-85-1 [21] = system: CAL-85-1; remark: listed apart in the source
How it was run: as §1

HCC1937 [22] = system: HCC1937
How it was run: as §1

BT-549 [23] = system: BT-549
How it was run: as §1

SK-BR-3 = system: SK-BR-3
How it was run: as §1

BT-474 [24] = system: BT-474; remark: listed apart in the source
How it was run: as §1

MDA-MB-231 = system: MDA-MB-231
How it was run: as §1

DU-4475 [25] = system: DU-4475; remark: listed apart in the source
How it was run: as §1

HCC1937 [26] = system: HCC1937; remark: listed apart in the source
How it was run: as §1

HDQ-P1 [27] = system: HDQ-P1; remark: listed apart in the source
How it was run: as §1

HCC1143 [28] = system: HCC1143; remark: listed apart in the source
How it was run: as §1

BT-549 [29] = system: BT-549; remark: listed apart in the source
How it was run: as §1

SMILES: C#Cc1cccc(Nc2ncnc3cc(OC)c(OCCCCCCC(=O)NO)cc23)c1 [CUDC-101]
- EC50, CellTiter-Blue viability (BT-474 [1]): 474 nM
- EC50, CellTox Green (Hs578T [2]): 6670 nM
- EC50, CellTox Green (MCF-10A [3]): 8030 nM
- EC50, CellTox Green (CAL-148 [4]): 1700 nM
- EC50, CellTox Green (MFM-223 [5]): 1600 nM
- EC50, CellTox Green (MDA-MB-468 [6]): 775 nM
- EC50, CellTox Green (MDA-MB-436 [7]): 792 nM
- EC50, CellTox Green (CAL-120 [8]): 5100 nM
- EC50, CellTox Green (CAL-85-1 [9]): 208 nM
- EC50, CellTox Green (BT-474 [10]): 2720 nM
- EC50, CellTiter-Glo (Hs578T [11]): 1920 nM
- EC50, CellTiter-Glo (MCF-10A [12]): 242 nM
- EC50, CellTiter-Glo (CAL-148 [13]): 1280 nM
- EC50, CellTiter-Glo (HDQ-P1 [14]): 3360 nM
- EC50, CellTiter-Glo (MFM-223 [15]): 190 nM
- EC50, CellTiter-Glo (DU-4475 [16]): 1500 nM
- EC50, CellTiter-Glo (HCC1599): 911 nM
- EC50, CellTiter-Glo (MDA-MB-468 [17]): 202 nM
- EC50, CellTiter-Glo (MDA-MB-453): 123 nM
- EC50, CellTiter-Glo (MDA-MB-436 [18]): 1640 nM
- EC50, CellTiter-Glo (CAL-120 [19]): 3230 nM
- EC50, CellTiter-Glo (CAL-51): 847 nM
- EC50, CellTiter-Glo (HCC1143 [20]): 783 nM
- EC50, CellTiter-Glo (CAL-85-1 [21]): 212 nM
- EC50, CellTiter-Glo (HCC1937 [22]): 1470 nM
- EC50, CellTiter-Glo (BT-549 [23]): 1170 nM
- EC50, CellTiter-Glo (SK-BR-3): 507 nM
- EC50, CellTiter-Glo (BT-474 [24]): 1970 nM
- EC50, CellTiter-Glo (MDA-MB-231): 689 nM

SMILES: COC1=C2C[C@@H](C)C[C@H](OC)[C@H](O)[C@@H](C)/C=C(\C)[C@H](OC(N)=O)[C@@H](OC)/C=C\C=C(/C)C(=O)NC(=CC1=O)C2=O [Geldanamycin]
- EC50, CellTiter-Blue viability (BT-474 [1]): 62 nM
- EC50, CellTox Green (MCF-10A [3]): 2370 nM
- EC50, CellTox Green (MFM-223 [5]): 8020 nM
- EC50, CellTox Green (DU-4475 [25]): 4720 nM
- EC50, CellTox Green (MDA-MB-468 [6]): 59.8 nM
- EC50, CellTox Green (CAL-85-1 [9]): 2570 nM
- EC50, CellTox Green (HCC1937 [26]): 2450 nM
- EC50, CellTox Green (BT-474 [10]): 6830 nM
- EC50, CellTiter-Glo (Hs578T [11]): 5350 nM
- EC50, CellTiter-Glo (MCF-10A [12]): 4380 nM
- EC50, CellTiter-Glo (CAL-148 [13]): 7190 nM
- EC50, CellTiter-Glo (HDQ-P1 [14]): 3910 nM
- EC50, CellTiter-Glo (MFM-223 [15]): 666 nM
- EC50, CellTiter-Glo (DU-4475 [16]): 2470 nM
- EC50, CellTiter-Glo (HCC1599): 5810 nM
- EC50, CellTiter-Glo (MDA-MB-468 [17]): 4130 nM
- EC50, CellTiter-Glo (MDA-MB-453): 3390 nM
- EC50, CellTiter-Glo (MDA-MB-436 [18]): 1050 nM
- EC50, CellTiter-Glo (CAL-120 [19]): 6700 nM
- EC50, CellTiter-Glo (CAL-51): 3480 nM
- EC50, CellTiter-Glo (HCC1143 [20]): 6310 nM
- EC50, CellTiter-Glo (CAL-85-1 [21]): 2680 nM
- EC50, CellTiter-Glo (HCC1937 [22]): 2130 nM
- EC50, CellTiter-Glo (BT-549 [23]): 3180 nM
- EC50, CellTiter-Glo (SK-BR-3): 1820 nM
- EC50, CellTiter-Glo (BT-474 [24]): 4080 nM
- EC50, CellTiter-Glo (MDA-MB-231): 3390 nM

SMILES: C[C@@]1(C(=O)Nc2ccc(F)nc2)CCCN1c1nc(Nc2cc(C3CC3)n[nH]2)c2cccn2n1
- EC50, CellTox Green (MCF-10A [3]): 3230 nM
- EC50, CellTox Green (CAL-148 [4]): > 10000 nM
- EC50, CellTox Green (HDQ-P1 [27]): 5000 nM
- EC50, CellTox Green (MFM-223 [5]): 587 nM
- EC50, CellTox Green (MDA-MB-468 [6]): 3.79 nM
- EC50, CellTox Green (CAL-120 [8]): 4500 nM
- EC50, CellTox Green (HCC1143 [28]): 1350 nM
- EC50, CellTiter-Glo (Hs578T [11]): 7980 nM
- EC50, CellTiter-Glo (MCF-10A [12]): 21.6 nM
- EC50, CellTiter-Glo (HDQ-P1 [14]): 402 nM
- EC50, CellTiter-Glo (MFM-223 [15]): 1570 nM
- EC50, CellTiter-Glo (DU-4475 [16]): 4110 nM
- EC50, CellTiter-Glo (HCC1599): 2260 nM
- EC50, CellTiter-Glo (MDA-MB-468 [17]): 207 nM
- EC50, CellTiter-Glo (MDA-MB-436 [18]): 2720 nM
- EC50, CellTiter-Glo (CAL-120 [19]): 1250 nM
- EC50, CellTiter-Glo (CAL-51): 1060 nM
- EC50, CellTiter-Glo (HCC1143 [20]): 4150 nM
- EC50, CellTiter-Glo (CAL-85-1 [21]): 467 nM
- EC50, CellTiter-Glo (BT-549 [23]): 1420 nM
- EC50, CellTiter-Glo (SK-BR-3): 127 nM
- EC50, CellTiter-Glo (BT-474 [24]): 2050 nM
- EC50, CellTiter-Glo (MDA-MB-231): 1770 nM

SMILES: COC(=O)C[C@](O)(CCCC(C)(C)O)C(=O)O[C@@H]1C(OC)=C[C@]23CCCN2CCc2cc4c(cc2[C@H]13)OCO4 [Omacetaxine]
- EC50, CellTiter-Blue viability (BT-474 [1]): 92.8 nM
- EC50, CellTox Green (Hs578T [2]): 40.8 nM
- EC50, CellTox Green (MCF-10A [3]): 770 nM
- EC50, CellTox Green (CAL-148 [4]): 2670 nM
- EC50, CellTox Green (HDQ-P1 [27]): 689 nM
- EC50, CellTox Green (MFM-223 [5]): 63.7 nM
- EC50, CellTox Green (MDA-MB-468 [6]): 388 nM
- EC50, CellTox Green (MDA-MB-436 [7]): 7440 nM
- EC50, CellTox Green (CAL-85-1 [9]): 41.7 nM
- EC50, CellTox Green (BT-549 [29]): 260 nM
- EC50, CellTox Green (BT-474 [10]): 5890 nM
- EC50, CellTiter-Glo (Hs578T [11]): 68.3 nM
- EC50, CellTiter-Glo (MCF-10A [12]): 116 nM
- EC50, CellTiter-Glo (CAL-148 [13]): 56.8 nM
- EC50, CellTiter-Glo (HDQ-P1 [14]): 39.1 nM
- EC50, CellTiter-Glo (MFM-223 [15]): 102 nM
- EC50, CellTiter-Glo (DU-4475 [16]): 14.4 nM
- EC50, CellTiter-Glo (HCC1599): 41.1 nM
- EC50, CellTiter-Glo (MDA-MB-468 [17]): 45.5 nM
- EC50, CellTiter-Glo (MDA-MB-453): 73.9 nM
- EC50, CellTiter-Glo (MDA-MB-436 [18]): 22.6 nM
- EC50, CellTiter-Glo (CAL-120 [19]): 93.8 nM
- EC50, CellTiter-Glo (CAL-51): 37.5 nM
- EC50, CellTiter-Glo (HCC1143 [20]): 80.6 nM
- EC50, CellTiter-Glo (CAL-85-1 [21]): 36.2 nM
- EC50, CellTiter-Glo (HCC1937 [22]): 64.3 nM
- EC50, CellTiter-Glo (BT-549 [23]): 50.3 nM
- EC50, CellTiter-Glo (SK-BR-3): 86.7 nM
- EC50, CellTiter-Glo (BT-474 [24]): 299 nM
- EC50, CellTiter-Glo (MDA-MB-231): 138 nM
